Measured values taken from article PMC6273621, “Synthesis and the Biological Activity of Phosphonylated 1,2,3-Triazolenaphthalimide Conjugates” (Molecules, 2016).
Where two headings read alike, the source gives them in different places.

How the values were obtained:
[1] = test system: murine leukemia (L1210) cells; assay: Cytostatic activity, L1210 cell proliferation; format: cell-based; settings: Mus musculus, read-out: IC50 L1210
Experimental: (§1) All assays were performed in 96-well microtiter plates. To each well were added (5–7.5) × 10^4 tumor cells and a given amount of the test compound. The cells were allowed to proliferate for 48 h (murine leukemia L1210 cells) or 72 h (human lymphocytic CEM and human cervix carcinoma HeLa cells) at 37 °C in a humidified CO2-controlled atmosphere. At the end of the incubation period, the cells were counted in a Coulter counter.

[2] = test system: human T-lymphocyte (CEM) cells; assay: Cytostatic activity, CEM cell proliferation; format: cell-based; settings: CCRF-CEM, 72 h, read-out: IC50 CEM
Experimental: as §1

[3] = test system: human cervix carcinoma cells (HeLa); assay: Cytostatic activity, HeLa cell proliferation; format: cell-based; settings: 72 h, read-out: IC50 HeLa
Experimental: as §1

[4] = test system: human dermal microvascular endothelial HMEC-1 cells; assay: Cytostatic activity, HMEC-1 cell proliferation; format: cell-based
[5] = test system: L1210, CEM, HeLa and HMEC-1 cells; assay: Cytostatic activity, overall statement on the tested cell lines; format: cell-based; settings: naphthalimides devoid of the 1,2,3-triazole unit
Experimental: as §1

[6] = test system: TK+ VZV strain; assay: microbe, parasite or virus in culture; format: cell-based, varicella-zoster virus (VZV) strain Oka; settings: for EC50: Human alphaherpesvirus 3, HEL, read-out: Antiviral Activity EC50, TK+ VZV Strain, HEL cell cultures, concentration reducing virus plaque formation by 50%
[7] = test system: TK− VZV strain; assay: microbe, parasite or virus in culture; format: cell-based, varicella-zoster virus (VZV) strain 07−1; settings: Human alphaherpesvirus 3, HEL, read-out: Antiviral Activity EC50, TK− VZV Strain, HEL cell cultures; concentration reducing virus plaque formation by 50%
[8] = test system: HEL cells; assay: Cytotoxicity, cell morphology (MCC) in HEL cells; format: cell-based, human; settings: minimum cytotoxic concentration causing microscopically detectable alteration of cell morphology
Excerpt: The cytotoxicity of the tested compounds toward the uninfected host cells was defined as the minimum cytotoxic concentration (MCC) that causes a microscopically detectable alteration of normal cell morphology.

| SMILES | IC50 ([1]; L1210, cell proliferation, 48 h) | IC50 ([2]; cell proliferation) | IC50 ([3]; cell proliferation) | IC50 ([4]; HMEC-1, cell proliferation, read-out: IC50 HMEC-1) | Cytostatic activity (in words) [5] | EC50 [6] | EC50 [7] | Cytotoxicity, Cell Morphology (MCC) [8] | IC50 ([1]; L1210, 48 h) | IC50 [2] | IC50 [3] | IC50 ([4]; HMEC-1, read-out: IC50 HMEC-1) | melting point | Potency toward the TK+ VZV strain (in words) ([6]; HEL cell cultures) |
| --- | --- | --- | --- | --- | --- | --- | --- | --- | --- | --- | --- | --- | --- | --- |
| C#CCN1C(=O)c2cccc3c(Br)ccc(c23)C1=O [Compound 8] | ≥ 250 µM | ≥ 250 µM | > 250 µM | > 250 µM | inactive | – | – | – | – | – | – | – | – | – |
| CCOP(=O)(CCCn1cc(CN2C(=O)c3cccc4cccc(c34)C2=O)nn1)OCC [Compound 14c, Diethyl 3-{4-[(1,3-Dioxo-1H-benzo[de]isoquinolin-2(3H)-yl)methyl]-1H-1,2,3-triazol-1-yl}propylphosphonate] | – | – | – | – | – | > 100 µM | 64.5 µM | >100 μM | ≥ 250 µM | 124 ± 19 µM | 172 ± 20 µM | ≥ 250 µM | 131 to 132 °C | – |
| CCOP(=O)(CCCCn1cc(CN2C(=O)c3cccc4cccc(c34)C2=O)nn1)OCC [Compound 14d, Diethyl 4-{4-[(1,3-Dioxo-1H-benzo[de]isoquinolin-2(3H)-yl)methyl]-1H-1,2,3-triazol-1-yl}butylphosphonate] | – | – | – | – | – | 86.4 µM | 56.7 µM | >100 μM | 156 ± 40 µM | 119 ± 3 µM | 150 ± 11 µM | 180 ± 54 µM | 131 to 132 °C | – |
| CCOP(=O)(OCC)C(O)Cn1cc(CN2C(=O)c3cccc4cccc(c34)C2=O)nn1 (centres unmarked) [Compound 14e, Diethyl 2-{4-[(1,3-Dioxo-1H-benzo[de]isoquinolin-2(3H)-yl)methyl]-1H-1,2,3-triazol-1-yl}-1-hydroxyethylphosphonate] | – | – | – | – | – | 69.9 µM | > 100 µM | >100 μM | > 250 µM | > 250 µM | ≥ 250 µM | ≥ 250 µM | 186 to 188 °C | – |
| CCOP(=O)(CCOCCn1cc(CN2C(=O)c3cccc4cccc(c34)C2=O)nn1)OCC [Compound 14h, Diethyl 2-(2-{4-[(1,3-Dioxo-1H-benzo[de]isoquinolin-2(3H)-yl)methyl]-1H-1,2,3-triazol-1-yl}ethoxy)ethylphosphonate] | – | – | – | – | – | > 100 µM | 74.6 µM | >100 μM | 196 ± 32 µM | 171 ± 25 µM | 154 ± 22 µM | 222 ± 39 µM | 156 to 158 °C | – |
| CCOP(=O)(CCn1cc(CN2C(=O)c3cccc4c(Br)ccc(c34)C2=O)nn1)OCC [Compound 15b] | – | – | – | – | – | 34.2 µM | 38.1 µM | >100 μM | 14 ± 1 µM | 56 ± 20 µM | 62 ± 20 µM | 152 ± 1 µM | 132 to 134 °C | – |
| CCOP(=O)(CCCCn1cc(CN2C(=O)c3cccc4c(Br)ccc(c34)C2=O)nn1)OCC [Compound 15d, Diethyl 4-{4-[(6-Bromo-1,3-dioxo-1H-benzo[de]isoquinolin-2(3H)-yl)methyl]-1H-1,2,3-triazol-1-yl}butylphosphonate] | – | – | – | – | – | 40.4 µM | 37.5 µM | 100 μM | 17 ± 3 µM | 22 µM | 55 ± 2 µM | 92 ± 43 µM | – | – |
| CCOP(=O)(CC(O)Cn1cc(CN2C(=O)c3cccc4c(Br)ccc(c34)C2=O)nn1)OCC (centres unmarked) [Compound 15f, Diethyl 3-{4-[(6-Bromo-1,3-dioxo-1H-benzo[de]isoquinolin-2(3H)-yl)methyl]-1H-1,2,3-triazol-1-yl}-2-hydroxypropylphosphonate] | – | – | – | – | – | 86.4 µM | > 100 µM | >100 μM | 23 ± 3 µM | 60 ± 13 µM | 87 ± 21 µM | 152 ± 1 µM | 152 to 153 °C | – |
| CCOP(=O)(CCOCCn1cc(CN2C(=O)c3cccc4c(Br)ccc(c34)C2=O)nn1)OCC [Compound 15h, Diethyl 2-(2-{4-[(6-Bromo-1,3-dioxo-1H-benzo[de]isoquinolin-2(3H)-yl)methyl]-1H-1,2,3-triazol-1-yl}ethoxy)ethylphosphonate] | – | – | – | – | – | 37.1 µM | 70.8 µM | >100 μM | 26 ± 2 µM | 29 ± 11 µM | 61 ± 15 µM | 151 µM | 92 to 93 °C | – |
| CCOP(=O)(Cn1cc(CN2C(=O)c3cccc4cc([N+](=O)[O-])cc(c34)C2=O)nn1)OCC [Compound 16a, Diethyl {4-[(5-Nitro-1,3-dioxo-1H-benzo[de]isoquinolin-2(3H)-yl)methyl]-1H-1,2,3-triazol-1-yl}methylphosphonate] | – | – | – | – | – | 39.1 µM | 64.5 µM | >100 μM | 66 ± 7 µM | 69 ± 1 µM | 44 ± 19 µM | 154 ± 1 µM | 147 to 148 °C | – |
| CCOP(=O)(CCn1cc(CN2C(=O)c3cccc4cc([N+](=O)[O-])cc(c34)C2=O)nn1)OCC [Compound 16b, Diethyl 2-{4-[(5-Nitro-1,3-dioxo-1H-benzo[de]isoquinolin-2(3H)-yl)methyl]-1H-1,2,3-triazol-1-yl}ethylphosphonate] | – | – | – | – | – | > 100 µM | 27.6 µM | 100 μM | > 250 µM | 176 ± 37 µM | 54 ± 21 µM | 118 ± 71 µM | – | no potency |
| CCOP(=O)(CCCn1cc(CN2C(=O)c3cccc4cc([N+](=O)[O-])cc(c34)C2=O)nn1)OCC [Compound 16c, Diethyl 3-{4-[(5-Nitro-1,3-dioxo-1H-benzo[de]isoquinolin-2(3H)-yl)methyl]-1H-1,2,3-triazol-1-yl}propylphosphonate] | – | – | – | – | – | 32.8 µM | 47.8 µM | >100 μM | 34 ± 9 µM | 55 ± 23 µM | 29 ± 17 µM | 136 ± 22 µM | 113 to 114 °C | – |
| CCOP(=O)(CCCCn1cc(CN2C(=O)c3cccc4cc([N+](=O)[O-])cc(c34)C2=O)nn1)OCC [Compound 16d, Diethyl 4-{4-[(5-Nitro-1,3-dioxo-1H-benzo[de]isoquinolin-2(3H)-yl)methyl]-1H-1,2,3-triazol-1-yl}butylphosphonate] | – | – | – | – | – | 29.9 µM | 53.9 µM | >100 μM | 70 ± 52 µM | 95 ± 4 µM | 81 ± 4 µM | 126 ± 37 µM | 150 to 151 °C | – |
| CCOP(=O)(OCC)C(O)Cn1cc(CN2C(=O)c3cccc4cc([N+](=O)[O-])cc(c34)C2=O)nn1 (centres unmarked) [Compound 16e, Diethyl 2-{4-[(5-Nitro-1,3-dioxo-1H-benzo[de]isoquinolin-2(3H)-yl)methyl]-1H-1,2,3-triazol-1-yl}-1-hydroxyethylphosphonate] | – | – | – | – | – | 83.6 µM | > 100 µM | >100 μM | 111 ± 39 µM | 127 ± 14 µM | 132 ± 2 µM | > 250 µM | 212 to 213 °C | – |
| CCOP(=O)(CC(O)Cn1cc(CN2C(=O)c3cccc4cc([N+](=O)[O-])cc(c34)C2=O)nn1)OCC (centres unmarked) [Compound 16f, Diethyl 3-{4-[(5-Nitro-1,3-dioxo-1H-benzo[de]isoquinolin-2(3H)-yl)methyl]-1H-1,2,3-triazol-1-yl}-2-hydroxypropylphosphonate] | – | – | – | – | – | 56.7 µM | 91.5 µM | >100 μM | 68 ± 11 µM | 71 ± 21 µM | 42 ± 21 µM | 155 ± 6 µM | 176 to 177 °C | – |
| CCOP(=O)(COCCn1cc(CN2C(=O)c3cccc4cc([N+](=O)[O-])cc(c34)C2=O)nn1)OCC [Compound 16g, Diethyl 2-{4-[(5-Nitro-1,3-dioxo-1H-benzo[de]isoquinolin-2(3H)-yl)methyl]-1H-1,2,3-triazol-1-yl}ethoxy-methylphosphonate] | – | – | – | – | – | 50.2 µM | > 100 µM | >100 μM | 71 ± 1 µM | 79 ± 4 µM | 76 ± 8 µM | 148 ± 3 µM | 89 to 90 °C | – |
| CCOP(=O)(CCOCCn1cc(CN2C(=O)c3cccc4cc([N+](=O)[O-])cc(c34)C2=O)nn1)OCC [Compound 16h, Diethyl 2-(2-{4-[(5-Nitro-1,3-dioxo-1H-benzo[de]isoquinolin-2(3H)-yl)methyl]-1H-1,2,3-triazol-1-yl}ethoxy)ethylphosphonate] | – | – | – | – | – | 40.9 µM | 64.5 µM | >100 μM | 64 ± 11 µM | 66 µM | 56 ± 16 µM | 152 ± 1 µM | – | – |
